Reference: US20240148821A1, “PHARMACEUTICAL USE OF CYCLIC PEPTIDE COMPOUND” (CHUGAI SEIYAKU KABUSHIKI KAISHA, priority 2021, published 2024)
Bridge positions count the residues as written; N and C are the ends. Square brackets hold non-standard residues; d marks the D form. Peptide text beside a SMILES is read from it. * marks the point of attachment. hPhe(3,5-F2-4-CF3) = N[C@@H](CCc1cc(F)c(C(F)(F)F)c(F)c1)C(=O)O; hPhe(3-Cl-4-CF3) = N[C@@H](CCc1ccc(C(F)(F)F)c(Cl)c1)C(=O)O; NMePhe(4-CN) = CN[C@@H](Cc1ccc(C#N)cc1)C(=O)O; NMePhe(3-Cl) = CN[C@@H](Cc1cccc(Cl)c1)C(=O)O; NMePhe(4-Cl) = CN[C@@H](Cc1ccc(Cl)cc1)C(=O)O; NMePhe(4-Me) = CN[C@@H](Cc1ccc(C)cc1)C(=O)O; NMeGly(cPent) = CN[C@H](C(=O)O)C1CCCC1; Phe(3-I) = N[C@@H](Cc1cccc(I)c1)C(=O)O; Pro(4,4-F2) = O=C(O)[C@@H]1CC(F)(F)CN1; NMeAla(cPr) = CN[C@@H](CC1CC1)C(=O)O; NMeGly(cBu) = CN[C@H](C(=O)O)C1CCC1; NMeCha = CN[C@@H](CC1CCCCC1)C(=O)O; NMeCba = CN[C@@H](CC1CCC1)C(=O)O; NMeChg = CN[C@H](C(=O)O)C1CCCCC1; NMeF = CN[C@@H](Cc1ccccc1)C(=O)O; NMeD = CN[C@@H](CC(=O)O)C(=O)O; NMeL = CN[C@@H](CC(C)C)C(=O)O; NMeV = CN[C@H](C(=O)O)C(C)C; d(β3hA) = C[C@@H](N)CC(=O)O; NMeA = CN[C@@H](C)C(=O)O; NMeAib = CNC(C)(C)C(=O)O; Nle = CCCC[C@H](N)C(=O)O; Piperidide = C1CCN(*)CC1; Pyrrolidide = C1CCN(*)C1; Ac5c = NC1(C(=O)O)CCCC1; Aze = O=C(O)[C@@H]1CCN1; Sar = CNCC(=O)O

system: Human pancreatic cancer cell line AsPC-1 (G12D mutation Kras); test: AsPC-1 cell growth inhibition (AsPC-1 CGI); type: cell-based; details: read-out: AsPC-1 cell growth inhibition, 50% growth inhibitory concentration (IC50 value); 96 hours, CellTiter-Glo, values classified in ranges
Method: Test compounds were serially dilated with dimethyl sulfoxide, and 200 nL was then dispensed to a U-bottom 96-well plate using Labcyte Echo. […] The cell suspension was dispensed to a. plate containing a test compound at 100 μL per well and incubated at 37° C. in a 5% carbon dioxide gas incubator. 96 hours later, 80 μL of CellTiter-Glo (Promega) was added to each well and fluorescence was measured.

Structure (SMILES) | IC50 [nM]
CC[C@H](C)[C@@H]1NC(=O)[C@H](CC(C)C)N(C)C(=O)C[C@@H](C(=O)N2CCCCC2)N(C)C(=O)[C@H](CC(C)C)NC(=O)C(C)(C)N(C)C(=O)[C@H](Cc2ccc(OC)cc2)NC(=O)[C@H](Cc2cccc(I)c2)NC(=O)CN(C)C(=O)[C@H](Cc2ccc(C)cc2)N(C)C(=O)[C@@H]2CCN2C(=O)[C@H](C)N(C)C1=O [Compound 703] ([NMeL]I[NMeA][Aze][NMePhe(4-Me)][Sar][Phe(3-I)]Y(Me)[NMeAib]L[NMeD]-Piperidide; lactam N-11) | > 500
CC[C@H](C)[C@@H]1NC(=O)[C@H](CC(C)C)N(C)C(=O)C[C@@H](C(=O)N2CCCCC2)N(C)C(=O)[C@H](C(C)C)N(C)C(=O)C2(CCCC2)NC(=O)[C@@H]2CCCN2C(=O)[C@H](CCc2ccc(C(F)(F)F)c(Cl)c2)NC(=O)CN(C)C(=O)[C@H](Cc2ccc(C#N)cc2)N(C)C(=O)CN(C)C(=O)CN(C)C1=O [Compound 867] ([NMeL]I[Sar][Sar][NMePhe(4-CN)][Sar][hPhe(3-Cl-4-CF3)]P[Ac5c][NMeV][NMeD]-Piperidide; lactam N-11) | > 500
CC[C@H](C)[C@@H]1NC(=O)[C@H](CC(C)C)N(C)C(=O)C[C@@H](C)NC(=O)[C@H](C2CCCCC2)N(C)C(=O)C2(CCCC2)NC(=O)[C@@H]2CCCN2C(=O)[C@H](CCc2ccc(C(F)(F)F)c(Cl)c2)NC(=O)CN(C)C(=O)[C@H](CC2CCCCC2)N(C)C(=O)CN(C)C(=O)CN(C)C1=O [Compound 593] (cyclo([Ac5c][NMeChg][d(β3hA)][NMeL]I[Sar][Sar][NMeCha][Sar][hPhe(3-Cl-4-CF3)]P)) | > 500
CC[C@H](C)[C@@H]1NC(=O)[C@H](CC2CCC2)N(C)C(=O)C[C@@H](C)NC(=O)[C@H](C(C)C)N(C)C(=O)C2(CCCC2)NC(=O)[C@@H]2CCCN2C(=O)[C@H](CCc2ccc(C(F)(F)F)c(Cl)c2)NC(=O)CN(C)C(=O)[C@H](CC2CCCCC2)N(C)C(=O)CN(C)C(=O)CN(C)C1=O [Compound 230] (cyclo([Ac5c][NMeV][d(β3hA)][NMeCba]I[Sar][Sar][NMeCha][Sar][hPhe(3-Cl-4-CF3)]P)) | > 500
CC[C@H](C)[C@@H]1NC(=O)[C@H](C)N(C)C(=O)C[C@@H](C(=O)N2CCCCC2)NC(=O)[C@H](CC(C)C)N(C)C(=O)[C@H](Cc2ccccc2)N(C)C(=O)[C@H](CC(C)C)NC(=O)[C@H](CCc2ccc(C(F)(F)F)c(Cl)c2)NC(=O)CN(C)C(=O)[C@H](Cc2ccc(Cl)cc2)N(C)C(=O)CN(C)C(=O)CN(C)C1=O [Compound 861] ([NMeA]I[Sar][Sar][NMePhe(4-Cl)][Sar][hPhe(3-Cl-4-CF3)]L[NMeF][NMeL]D-Piperidide; lactam N-11) | > 500
CC[C@H](C)[C@@H]1NC(=O)[C@H](CC(C)C)N(C)C(=O)C[C@@H](C)NC(=O)[C@H](CC2CC2)N(C)C(=O)C2(CCCC2)NC(=O)[C@@H]2CCCN2C(=O)[C@H](CCc2ccc(C(F)(F)F)c(Cl)c2)NC(=O)CN(C)C(=O)[C@H](CC2CCCCC2)N(C)C(=O)CN(C)C(=O)CN(C)C1=O [Compound 707] (cyclo([Ac5c][NMeAla(cPr)][d(β3hA)][NMeL]I[Sar][Sar][NMeCha][Sar][hPhe(3-Cl-4-CF3)]P)) | > 500
CC[C@H](C)[C@@H]1NC(=O)[C@H](CC(C)C)N(C)C(=O)C[C@@H](C)NC(=O)[C@H](C2CCCC2)N(C)C(=O)C2(CCCC2)NC(=O)[C@@H](C)NC(=O)[C@H](CCc2ccc(C(F)(F)F)c(Cl)c2)NC(=O)CN(C)C(=O)[C@H](Cc2ccc(C)cc2)N(C)C(=O)[C@@H]2CCN2C(=O)[C@H](C)N(C)C1=O [Compound 1328] (cyclo([Ac5c][NMeGly(cPent)][d(β3hA)][NMeL]I[NMeA][Aze][NMePhe(4-Me)][Sar][hPhe(3-Cl-4-CF3)][dA])) | > 500
CCCC[C@@H]1NC(=O)[C@H](Cc2cccc(I)c2)NC(=O)CN(C)C(=O)[C@H](Cc2ccc(Cl)cc2)N(C)C(=O)CN(C)C(=O)CN(C)C(=O)[C@H]([C@@H](C)CC)NC(=O)[C@H](CC(C)C)N(C)C(=O)C[C@@H](C(=O)N2CCCCC2)N(C)C(=O)[C@H](CC(C)C)NC(=O)[C@H](Cc2cccc(Cl)c2)N(C)C1=O [Compound 1044] ([NMeL]I[Sar][Sar][NMePhe(4-Cl)][Sar][Phe(3-I)][Nle][NMePhe(3-Cl)]L[NMeD]-Piperidide; lactam N-11) | > 500
CC[C@H](C)[C@@H]1NC(=O)[C@H](C2CCC2)N(C)C(=O)C[C@@H](C(=O)N2CCCC2)N(C)C(=O)[C@H](C2CCCCC2)N(C)C(=O)C2(CCCC2)NC(=O)[C@@H]2CC(F)(F)CN2C(=O)[C@H](CCc2cc(F)c(C(F)(F)F)c(F)c2)NC(=O)CN(C)C(=O)[C@H](CC2CCCCC2)N(C)C(=O)CN(C)C(=O)CN(C)C1=O [Compound 1295] ([NMeGly(cBu)]I[Sar][Sar][NMeCha][Sar][hPhe(3,5-F2-4-CF3)][Pro(4,4-F2)][Ac5c][NMeChg][NMeD]-Pyrrolidide; lactam N-11) | ≤ 20
